{
  "source": "patent US20240245711A1",
  "about": "“A 19-NOR C3,3-DISUBSTITUTED C21-N-PYRAZOLYL STEROID FOR THE TREATMENT OF MAJOR DEPRESSIVE DISORDER” (Sage Therapeutics, Inc., priority 2021, published 2024)",
  "test_system": "adult subjects with Major Depressive Disorder",
  "assay": "Phase 3 open-label 1-year study: HAM-D total score, response and remission",
  "assay_type": "in vivo, human",
  "source_text": "Secondary Objective: To assess the need for re-treatment with Compound (1) following initial treatment in adults with MDD currently experiencing an MDE over a 1-year period, and to assess the response of initial treatment and re-treatment(s) with Compound (1) following an initial 2-week treatment period in adults with MDD currently experiencing an MDE over a 1-year period.\nSecondary Endpoints: The need for re-treatment with Compound (1) as assessed by: time to first re-treatment (Kaplan-Meier curves), number of subjects achieving the requirements for re-treatment, number of re-treatment cycles for each subject, the response of initial treatment and/or re-treatment as assessed by: change from baseline in the 17-item Hamilton Rating Scale for Depression (HAM-D) total score at the end of each 14-day treatment (initial and/or re-treatment) period, HAM-D response at the end of each 14-day treatment (initial and/or re-treatment) period, defined as a ≥50% reduction in HAM-D score from baseline, HAM-D remission at the end of each 14-day treatment (initial and/or re-treatment) period, defined as HAM-D total score≤7, Clinical Global Impression-Improvement (CGI-I) response, defined as “much improved” or “very much improved”, at the end of each 14-day treatment (initial and/or re-treatment) period, change from baseline in Clinical Global Impression-Severity (CGI-S) score at the end of each 14-day treatment (initial and/or re-treatment) period.\nStudy Population: Subjects were 18-75 years old, diagnosed with major depressive disorder (MDD) with a MADRS total score of ≥28 and a HAM-D total score of ≥20 at Screening and Day 1 (prior to dosing).\nTreatment Groups: The 30 mg and 50 mg dose groups were separated by time of enrollment. The study is comprised of two cohorts: one with Compound (1) 30 mg as a starting dose (30 mg Cohort: n=725), an initial cohort with Compound (1) 50 mg as a starting dose (50 mg Cohort: n=199). A patient receiving Compound (1) 30 mg could be dose reduced to 20 mg and patients receiving Compound (1) 50 mg could be dose reduced to 40 mg (based on tolerability). In all cohorts, Compound (1) is self-administered by patients as an oral therapy once nightly with food for 14 days.\nEligible subjects were given Compound (1)—to be taken at home in the evening with meal.\nThe cohorts pertaining to the different doses that the subjects received were defined as following: • 50 mg cohort: This cohort includes subjects who have initiated treatment with 50 mg and received re-treatment with 50 mg only. • 30 mg cohort: This cohort includes subjects who have initiated treatment with 30 mg regardless of the dose they have received in re-treatments. • Low dose cohort: This cohort includes subjects who have initiated treatment with 30 mg and received re-treatment with 30 mg only. • Dose switch cohort: This cohort includes subjects who have received initial treatment with 30 mg and at least one subsequent re-treatment with 50 mg. • Study Period X: starts on the date of the first dose of Compound (1) in cycle X and goes up to one day prior to the first dose of the next cycle. In some embodiments, X is any number from 1 to 5. • Treatment Period X: starts on the date of the first dose of Compound (1) in cycle X and goes up to one day after the last dose in cycle X. In some embodiments, X is any number from 1 to 5. • Treatment Cycle X: starts on the date of the first dose of Compound (1) in cycle X and goes up to 14 days after the last dose in cycle X. The treatment cycles may be denoted as C1-C5. • Observation period X: starts the day after Treatment Cycle X ends and goes up to one day prior to the start of next treatment cycle. In some embodiments, X is any number from 1 to 5.\nAnalysis Sets: The safety set was defined as all subjects who were administered study drug. The period-specific safety set includes subjects in the safety set who were administered study drug in the corresponding treatment cycle. […]",
  "key": {"[1]": {"details": "Day 15 of first treatment cycle, overall study population"}, "[2]": {"details": "Dose Switch Cohort (FAS), first dose in cycle 30 mg, Cycle 2, Day 15"}, "[3]": {"details": "Dose Switch Cohort (FAS), first dose in cycle 30 mg, Cycle 3, Day 15"}, "[4]": {"details": "Dose Switch Cohort (FAS), first dose in cycle 30 mg, Cycle 4, Day 15"}, "[5]": {"details": "Low Dose Cohort (FAS), of Non-responders at D15 in C3 (N = 33)"}, "[6]": {"details": "Low Dose Cohort (FAS), of Non-responders at D15 in C4 (N = 18)"}, "[7]": {"details": "Low Dose Cohort (FAS), of Non-responders at D15 in C5 (N = 7)"}, "[8]": {"details": "Low Dose Cohort (FAS), subjects dosed in Cycle 2 (199), Cycle 1, Day 15"}, "[9]": {"details": "Low Dose Cohort (FAS), subjects dosed in Cycle 2 (199), Cycle 1, Day 28"}, "[10]": {"details": "Low Dose Cohort (FAS), subjects dosed in Cycle 2 (199), Cycle 2, Day 15"}, "[11]": {"details": "Low Dose Cohort (FAS), subjects dosed in Cycle 2 (199), Cycle 2, Day 28"}, "[12]": {"details": "Low Dose Cohort (FAS), subjects dosed in Cycle 3 (83), Cycle 1, Day 15"}, "[13]": {"details": "Low Dose Cohort (FAS), subjects dosed in Cycle 3 (83), Cycle 2, Day 15"}, "[14]": {"details": "Low Dose Cohort (FAS), subjects dosed in Cycle 3 (83), Cycle 2, Day 28"}, "[15]": {"details": "Low Dose Cohort (FAS), subjects dosed in Cycle 3 (83), Cycle 3, Day 15"}, "[16]": {"details": "Low Dose Cohort (FAS), subjects dosed in Cycle 3 (83), Cycle 3, Day 28"}},
  "data": [
    {"smiles": "C[C@@]1(O)CC[C@H]2[C@H](CC[C@@H]3[C@@H]2CC[C@]2(C)[C@@H](C(=O)Cn4cc(C#N)cn4)CC[C@@H]32)C1", "note": "[Compound (1), 1-(2-((3R,5R,8R,9R,10S,13S,14S,17S)-3-hydroxy-3,13-dimethylhexadecahydro-1H-cyclopenta[a]phenanthren-17-yl)-2-oxoethyl)-1H-pyrazole-4-carbonitrile]", "values": [
      {"measurement": "Withdrawn in Treatment Cycle 1: Exit for non-response, n (%)", "setting": "50 mg Cohort (n = 199)", "result": "31 (15.6%)"},
      {"measurement": "Subjects achieving remission (HAM-D less than or equal to 7)", "setting": "50 mg Cohort, Day 15 Treatment Cycle 1, Example 4, 80 subjects of 199", "result": 40.2, "unit": "%"},
      {"measurement": "Subjects achieving response (at least 50% reduction in HAM-D from baseline)", "setting": "50 mg Cohort, Day 15 Treatment Cycle 1, Example 4, about 149 subjects of 199", "result": 74.9, "unit": "%"},
      {"measurement": "HAMD-17 remission rate", "setting": "[1]", "result": 40.8, "unit": "%"},
      {"measurement": "HAMD-17 response rate", "setting": "[1]", "result": 75.0, "unit": "%"},
      {"measurement": "Mean (SD) CFB in HAMD-17", "setting": "Day 15 of first treatment cycle, overall study population (30 mg and 50 mg Cohorts)", "result": "−15.4 (6.9)"},
      {"measurement": "Responders at D15 in C1 who did not discontinue in C1 (FAS), % of subjects dosed in C1", "setting": "Dose Switch Cohort (80 dosed)", "result": "80 (100%)"},
      {"measurement": "HAM-D Total Score, Mean Change from Period-Specific Baseline", "setting": "[2]", "result": "−15.5"},
      {"measurement": "HAM-D Total Score, Mean Percent Change from Period-Specific Baseline", "setting": "[2]", "result": "−59.1"},
      {"measurement": "HAM-D Total Score, Mean Change from Period-Specific Baseline", "setting": "[3]", "result": "−15.8"},
      {"measurement": "HAM-D Total Score, Mean Percent Change from Period-Specific Baseline", "setting": "[3]", "result": "−60.0"},
      {"measurement": "HAM-D Total Score, Mean Change from Period-Specific Baseline", "setting": "[4]", "result": "−14.8"},
      {"measurement": "HAM-D Total Score, Mean Percent Change from Period-Specific Baseline", "setting": "[4]", "result": "−60.0"},
      {"measurement": "Responders at D15 in C1 who did not discontinue in C1 (FAS), % of subjects dosed in C1", "setting": "Low Dose Cohort (645 dosed)", "result": "409 (63.4%)"},
      {"measurement": "HAM-D Non-responder rate at D15 (of subjects dosed in cycle)", "setting": "Low Dose Cohort (FAS), C2 (N = 70 of 199)", "result": "(N = 70, 35.2%)"},
      {"measurement": "HAM-D Non-responder rate at D15 (of subjects dosed in cycle)", "setting": "Low Dose Cohort (FAS), C3 (N = 33 of 83)", "result": "(N = 33, 39.8%)"},
      {"measurement": "HAM-D Non-responder rate at D15 (of subjects dosed in cycle)", "setting": "Low Dose Cohort (FAS), C4 (N = 18 of 43)", "result": "(N = 18, 41.9%)"},
      {"measurement": "HAM-D Non-responder rate at D15 (of subjects dosed in cycle)", "setting": "Low Dose Cohort (FAS), C5 (N = 7 of 20)", "result": "(N = 7, 35%)"},
      {"measurement": "Status in C2: Non-responder", "setting": "[5]", "result": "(57.6%)"},
      {"measurement": "Status in C2: Responder", "setting": "[5]", "result": "(42.4%)"},
      {"measurement": "Status in C2: Non-responder", "setting": "[6]", "result": "(55.6%)"},
      {"measurement": "Status in C2: Responder", "setting": "[6]", "result": "(44.4%)"},
      {"measurement": "Status in C3: Non-responder", "setting": "[6]", "result": "9 (50.0%)"},
      {"measurement": "Status in C3: Responder", "setting": "[6]", "result": "(50.0%)"},
      {"measurement": "Status in C2: Non-responder", "setting": "[7]", "result": "(85.7%)"},
      {"measurement": "Status in C2: Responder", "setting": "[7]", "result": "(14.3%)"},
      {"measurement": "Status in C3: Non-responder", "setting": "[7]", "result": "3 (42.9%)"},
      {"measurement": "Status in C3: Responder", "setting": "[7]", "result": "(57.1%)"},
      {"measurement": "Status in C4: Non-responder", "setting": "[7]", "result": "5 (71.4%)"},
      {"measurement": "Status in C4: Responder", "setting": "[7]", "result": "1 (14.4%)"},
      {"measurement": "HAM-D Total Score, Mean Change from Period-Specific Baseline", "setting": "[8]", "result": "−17.4"},
      {"measurement": "HAM-D Total Score, Mean Percent Change from Period-Specific Baseline", "setting": "[8]", "result": "−70.0"},
      {"measurement": "HAM-D Total Score, Mean Change from Period-Specific Baseline", "setting": "[9]", "result": "−13.8"},
      {"measurement": "HAM-D Total Score, Mean Percent Change from Period-Specific Baseline", "setting": "[9]", "result": "−55.2"},
      {"measurement": "HAM-D Total Score, Mean Change from Period-Specific Baseline", "setting": "[10]", "result": "−12.3"},
      {"measurement": "HAM-D Total Score, Mean Percent Change from Period-Specific Baseline", "setting": "[10]", "result": "−52.6"},
      {"measurement": "HAM-D Total Score, Mean Change from Period-Specific Baseline", "setting": "[11]", "result": "−11.5"},
      {"measurement": "HAM-D Total Score, Mean Percent Change from Period-Specific Baseline", "setting": "[11]", "result": "−49.1"},
      {"measurement": "HAM-D Total Score, Mean Change from Period-Specific Baseline", "setting": "[12]", "result": "−17.2"},
      {"measurement": "HAM-D Total Score, Mean Percent Change from Period-Specific Baseline", "setting": "[12]", "result": "−68.8"},
      {"measurement": "HAM-D Total Score, Mean Change from Period-Specific Baseline", "setting": "Low Dose Cohort (FAS), subjects dosed in Cycle 3 (83), Cycle 1, Day 28", "result": "83, −12.7, —"},
      {"measurement": "HAM-D Total Score, Mean Change from Period-Specific Baseline", "setting": "[13]", "result": "−12.7"},
      {"measurement": "HAM-D Total Score, Mean Percent Change from Period-Specific Baseline", "setting": "[13]", "result": "−52.9"},
      {"measurement": "HAM-D Total Score, Mean Change from Period-Specific Baseline", "setting": "[14]", "result": "−11.2"},
      {"measurement": "HAM-D Total Score, Mean Percent Change from Period-Specific Baseline", "setting": "[14]", "result": "−46.5"},
      {"measurement": "HAM-D Total Score, Mean Change from Period-Specific Baseline", "setting": "[15]", "result": "−12.5"},
      {"measurement": "HAM-D Total Score, Mean Percent Change from Period-Specific Baseline", "setting": "[15]", "result": "−52.4"},
      {"measurement": "HAM-D Total Score, Mean Change from Period-Specific Baseline", "setting": "[16]", "result": "−11.9"},
      {"measurement": "HAM-D Total Score, Mean Percent Change from Period-Specific Baseline", "setting": "[16]", "result": "−49.8"},
      {"measurement": "HAM-D Total Score, Mean Change from Period-Specific Baseline", "setting": "Low Dose Cohort (FAS), subjects dosed in Cycle 4 (43), Cycle 1, Day 15", "result": "−17.0"}
    ]}
  ]
}
